# Data from ChEMBL document CHEMBL1955784, “Novel 5-substituted 1H-tetrazoles as cyclooxygenase-2 (COX-2) inhibitors” (Bioorg Med Chem Lett, 2012).
# Experiments:
# [1] = target: T1, Prostaglandin G/H synthase 1 (Ovis aries, UniProt P05979); experiment: Competitive inhibition of ovine COX1 by enzyme immunoassay
# T1 sequence (P05979 whole entry): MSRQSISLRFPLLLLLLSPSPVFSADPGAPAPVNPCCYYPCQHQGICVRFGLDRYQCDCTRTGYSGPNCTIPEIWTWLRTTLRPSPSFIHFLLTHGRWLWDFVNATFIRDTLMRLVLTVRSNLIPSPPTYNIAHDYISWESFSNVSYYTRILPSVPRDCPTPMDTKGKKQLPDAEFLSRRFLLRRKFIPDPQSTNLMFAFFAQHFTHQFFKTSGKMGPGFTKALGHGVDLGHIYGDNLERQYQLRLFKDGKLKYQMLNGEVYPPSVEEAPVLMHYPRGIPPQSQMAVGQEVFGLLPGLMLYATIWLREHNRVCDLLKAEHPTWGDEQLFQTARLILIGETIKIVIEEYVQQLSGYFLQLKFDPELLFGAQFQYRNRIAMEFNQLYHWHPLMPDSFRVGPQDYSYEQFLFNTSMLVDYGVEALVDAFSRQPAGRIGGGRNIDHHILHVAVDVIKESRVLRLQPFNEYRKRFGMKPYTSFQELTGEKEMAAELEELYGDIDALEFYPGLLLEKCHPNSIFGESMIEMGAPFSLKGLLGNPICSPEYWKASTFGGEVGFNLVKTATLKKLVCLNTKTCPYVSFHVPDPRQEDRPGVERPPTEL
# [2] = target: T2, Prostaglandin G/H synthase 2 (Homo sapiens, UniProt P35354); experiment: Competitive inhibition of human recombinant COX2 by enzyme immunoassay
# T2 sequence (P35354 whole entry): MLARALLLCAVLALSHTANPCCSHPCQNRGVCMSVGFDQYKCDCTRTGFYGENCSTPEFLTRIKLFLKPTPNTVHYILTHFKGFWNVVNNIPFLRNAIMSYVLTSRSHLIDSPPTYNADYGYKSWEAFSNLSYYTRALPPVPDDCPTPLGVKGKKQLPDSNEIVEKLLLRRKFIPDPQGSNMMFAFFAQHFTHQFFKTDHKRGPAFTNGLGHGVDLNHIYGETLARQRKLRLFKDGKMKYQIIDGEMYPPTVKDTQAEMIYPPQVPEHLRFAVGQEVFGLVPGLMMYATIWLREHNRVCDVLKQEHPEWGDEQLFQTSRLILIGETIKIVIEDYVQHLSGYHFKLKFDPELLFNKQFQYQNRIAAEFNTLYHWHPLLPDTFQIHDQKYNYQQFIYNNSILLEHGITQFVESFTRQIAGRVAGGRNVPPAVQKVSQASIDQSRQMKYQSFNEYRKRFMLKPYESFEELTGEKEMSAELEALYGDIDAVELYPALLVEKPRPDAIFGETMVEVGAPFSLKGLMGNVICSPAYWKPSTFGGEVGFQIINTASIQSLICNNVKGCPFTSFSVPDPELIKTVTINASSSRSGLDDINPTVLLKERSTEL
SMILES,IC50 [1] [µM],IC50 [2] [µM]
Cc1ccc(-c2nnnn2-c2ccc(S(N)(=O)=O)cc2)cc1,> 100,> 100
NS(=O)(=O)c1ccc(-n2nnnc2-c2ccc(Cl)cc2)cc1,> 100,62
CS(=O)(=O)c1ccc(-n2nnnc2-c2ccc(F)cc2)cc1,> 100,15
CS(=O)(=O)c1ccc(-n2nnnc2-c2ccc(Cl)cc2)cc1,> 100,32
CS(=O)(=O)c1ccc(-n2nnnc2-c2ccc([N+](=O)[O-])cc2)cc1,> 100,69
